ChEMBL document CHEMBL5104135, “Potent and selective TYK2-JH1 inhibitors highly efficacious in rodent model of psoriasis” (Bioorg Med Chem Lett, 2022)
pIC50, pKi: −log10 of the molar value. Converted amounts (≈) assume the structure as drawn.

How the values were obtained:
Homo sapiens [1] = species: Homo sapiens; assay: Ratio Ki for inhibition of JAK2 (unknown origin) over TYK2 JH1 domain (unknown origin)
Homo sapiens [2] = species: Homo sapiens; assay: Ratio Ki for inhibition of JAK1 (unknown origin) over TYK2 JH1 domain (unknown origin)
Homo sapiens [3] = species: Homo sapiens; assay: Ratio Ki for inhibition of JAK3 (unknown origin) over TYK2 JH1 domain (unknown origin)
[4] = Efflux ratio of apparent permeability in human Caco-2 cells
[5] = Kinetic solubility of compound at pH 7.4; details: buffer
[6] = biological target: Non-receptor tyrosine-protein kinase TYK2 (Homo sapiens, UniProt P29597)
Sequence of Non-receptor tyrosine-protein kinase TYK2 (P29597 whole entry): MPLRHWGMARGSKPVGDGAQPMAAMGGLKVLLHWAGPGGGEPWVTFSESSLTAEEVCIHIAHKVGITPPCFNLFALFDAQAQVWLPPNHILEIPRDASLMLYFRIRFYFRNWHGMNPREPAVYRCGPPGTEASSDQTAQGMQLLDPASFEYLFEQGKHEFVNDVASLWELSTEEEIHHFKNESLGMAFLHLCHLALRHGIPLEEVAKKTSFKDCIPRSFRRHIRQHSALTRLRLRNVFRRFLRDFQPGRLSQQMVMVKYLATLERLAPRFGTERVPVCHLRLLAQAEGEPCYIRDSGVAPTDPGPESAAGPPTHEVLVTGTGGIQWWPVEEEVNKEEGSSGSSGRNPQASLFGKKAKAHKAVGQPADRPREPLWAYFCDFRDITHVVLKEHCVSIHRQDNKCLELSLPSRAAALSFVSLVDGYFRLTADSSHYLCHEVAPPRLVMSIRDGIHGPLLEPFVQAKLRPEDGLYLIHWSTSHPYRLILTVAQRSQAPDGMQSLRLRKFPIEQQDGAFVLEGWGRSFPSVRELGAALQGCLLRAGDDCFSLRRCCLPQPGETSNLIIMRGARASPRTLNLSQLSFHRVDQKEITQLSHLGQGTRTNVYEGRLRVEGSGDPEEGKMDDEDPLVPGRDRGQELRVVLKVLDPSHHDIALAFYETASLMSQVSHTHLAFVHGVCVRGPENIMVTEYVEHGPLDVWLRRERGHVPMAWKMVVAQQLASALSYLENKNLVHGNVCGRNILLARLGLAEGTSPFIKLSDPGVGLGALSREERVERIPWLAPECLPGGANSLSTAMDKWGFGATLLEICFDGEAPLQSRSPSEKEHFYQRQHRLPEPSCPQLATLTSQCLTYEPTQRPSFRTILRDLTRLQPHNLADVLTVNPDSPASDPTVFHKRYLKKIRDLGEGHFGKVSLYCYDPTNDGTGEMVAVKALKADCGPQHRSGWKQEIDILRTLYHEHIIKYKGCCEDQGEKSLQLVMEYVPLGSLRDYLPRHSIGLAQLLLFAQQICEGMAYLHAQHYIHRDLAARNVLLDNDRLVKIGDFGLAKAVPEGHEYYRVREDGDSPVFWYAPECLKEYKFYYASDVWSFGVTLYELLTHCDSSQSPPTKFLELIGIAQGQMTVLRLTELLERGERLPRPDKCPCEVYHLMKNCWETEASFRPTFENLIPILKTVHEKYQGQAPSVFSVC
Description: Inhibition of TYK2 JH1 domain (unknown origin) measured in presence of 10 uM ATP

[7] = Plasma protein binding in mouse assessed as unbound fraction
[8] = Thermodynamic solubility in simulated gastric fluid; format: physicochemical; details: read-out: Therm_solubility
Blood [9] = assay: Inhibition of IL-12- induced IFN-gamma production in mouse whole blood; format: functional, tissue-based; details: for pIC50: Mus musculus, Blood
[10] = Plasma protein binding in human assessed as unbound fraction
Blood [11] = assay: Inhibition of IL-12- induced IFN-gamma production in human whole blood; format: functional, tissue-based; details: for pIC50: Homo sapiens, Blood
[12] = Thermodynamic solubility in fasted simulated intestinal fluid; format: physicochemical; details: read-out: Therm_solubility

Ratio Ki (Homo sapiens [1]) | Ratio Ki (Homo sapiens [2]) | Ratio Ki (Homo sapiens [3]) | efflux ratio [4] | SMILES | further results
72 | 39 | 5.7 | 9.6 | CCNC(=O)Cc1ccc(Nc2cc(-c3c(F)cccc3F)nc3c2C(=O)NC3)nc1 | solubility kinetic [5]: 0.6 µM (≈ 0.254 µg/mL)
84 | 130 | 10 |  | O=C1NCc2nc(-c3c(F)cccc3F)nc(Nc3ccc(C4CCCNC4=O)cc3)c21 (stereo in doubt; 15b) [listing 1 of 2 here] | 
83 | 77 | 19 |  | O=C1NCc2nc(-c3c(F)cccc3F)nc(Nc3ccc(C4CCCNC4=O)cc3)c21 (stereo in doubt; 15a) | 
1.1 | 1.4 | 2.3 |  | NC(=O)c1ccc(NC(=O)c2ccc[nH]c2=O)cc1 | 
2.5 | 5.3 | 1.3 |  | CC(C)c1nc(Nc2ccc(C(=O)O)cc2)c2c(=O)[nH]ccc2n1 | 
26 | 27 | 170 |  | N#Cc1cccc(F)c1-c1cc(Nc2ccc(N3CCOCC3)cn2)c2c(n1)CNC2=O | 
12 | 7.3 | 1.8 |  | CCNC(=O)c1ccc(Nc2cc(-c3c(F)cccc3Cl)nc3c2C(=O)NC3)nc1 | 
 |  |  |  | CCNC(=O)C(C)(O)c1ccc(Nc2nc(-c3c(F)cccc3F)nc3c2C(=O)NC3)cc1 (stereo in doubt; 13b) [listing 1 of 2 here] | pKi [6]: 8.47
170 | 84 | 24 | 7.2 | CCNC(=O)c1ccc(Nc2cc(-c3c(F)cccc3F)nc3c2C(=O)NC3)nc1 | fraction unbound [7]: 0.16; solubility thermodynamic [8]: 255 µM (≈ 104 µg/mL); fIC50 (Blood [9]): 0.19 µM; pIC50 (Blood [9]): 5.92; fraction unbound [10]: 0.17; fIC50 (Blood [11]): 0.27 µM; pIC50 (Blood [11]): 5.80; solubility kinetic [5]: 3.1 µM (≈ 1.27 µg/mL); solubility thermodynamic [12]: 15 µM (≈ 6.14 µg/mL)
15 | 6.5 | 69 |  | CCNC(=O)c1ccc(Nc2cc(-c3c(F)cccc3C#N)nc3c2C(=O)NC3)nc1 | 
300 | 87 | 43 |  | CCNC(=O)C(C)(O)c1ccc(Nc2nc(-c3c(F)cccc3F)nc3c2C(=O)NC3)cc1 (stereo in doubt; 13a) [listing 1 of 2 here] | 
18 | 16 | 2.3 |  | O=C1NCc2nc(-c3c(F)cccc3F)cc(Nc3ccc(C(=O)N4CCOCC4)cn3)c21 | 
74 | 7.8 | 95 |  | NC(=O)c1cnc(-c2c(F)cccc2F)nc1Nc1ccc(CC(=O)O)cc1 | 
47 | 59 | 8.8 |  | O=C1NCc2nc(-c3c(F)cccc3F)nc(Nc3ccc(CC(=O)N4CCOCC4)cc3)c21 | 
35 | 37 | 4 |  | O=C1NCc2nc(-c3c(F)cccc3F)nc(Nc3ccc(C4CCNC4=O)cc3)c21 (stereo in doubt; 14a) | 
77 | 80 | 13 | 7.8 | O=C1NCc2nc(-c3c(F)cccc3F)cc(Nc3ccc(N4CCOCC4=O)cn3)c21 | solubility thermodynamic [8]: 418 µM (≈ 183 µg/mL); solubility kinetic [5]: 8.9 µM (≈ 3.89 µg/mL); solubility thermodynamic [12]: 24 µM (≈ 10.5 µg/mL)
240 | 25 | 11 |  | COc1ccc(Nc2nc(-c3c(F)cccc3F)nc3c2C(=O)NC3)cc1 | 
 |  |  | 32 | CCNC(=O)C(C)(O)c1ccc(Nc2nc(-c3c(F)cccc3F)nc3c2C(=O)NC3)cc1 (stereo in doubt; 13a) [listing 2 of 2 here] | 
23 | 53 | 3.3 |  | O=C1NCc2nc(-c3c(F)cccc3F)cc(Nc3ccc(C(=O)N4CCCC4)cn3)c21 | 
35 | 92 | 8.6 | 9.1 | O=C1NCc2nc(-c3c(F)cccc3F)cc(Nc3ccc(C(=O)N4CCOCC4)cc3)c21 | fraction unbound [7]: 0.24; fIC50 (Blood [9]): 0.86 µM; pIC50 (Blood [9]): 5.44; fraction unbound [10]: 0.25; fIC50 (Blood [11]): 0.16 µM; pIC50 (Blood [11]): 6.21; solubility kinetic [5]: 170 µM (≈ 76.6 µg/mL); solubility thermodynamic [12]: 148 µM (≈ 66.7 µg/mL)
120 | 160 | 25 | 0.58 | O=C1NCc2nc(-c3c(F)cccc3F)cc(Nc3ccc(N4CCOCC4)cn3)c21 | solubility kinetic [5]: 12 µM (≈ 5.08 µg/mL)
 |  |  |  | O=C1NCc2nc(-c3c(F)cccc3F)nc(Nc3ccc(C4CCCNC4=O)cc3)c21 (stereo in doubt; 15b) [listing 2 of 2 here] | pKi [6]: 8.41
30 | 17 | 4.6 | 6.4 | CCNC(=O)Cc1ccc(Nc2nc(-c3c(F)cccc3F)nc3c2C(=O)NC3)cc1 | solubility kinetic [5]: 1.2 µM (≈ 0.508 µg/mL)
 |  |  |  | O=C1NCc2nc(-c3c(F)cccc3F)nc(Nc3ccc(C4CCNC4=O)cc3)c21 (stereo in doubt; 14b) [listing 1 of 2 here] | pKi [6]: 8.96
96 | 55 | 15 |  | O=C1NCc2nc(-c3c(F)cccc3F)nc(Nc3ccc(C4CCNC4=O)cc3)c21 (stereo in doubt; 14b) [listing 2 of 2 here] | 
110 | 110 | 14 | 60 | O=C1NCc2nc(-c3c(F)cccc3F)cc(Nc3ccc(C(=O)N4CC[C@H](O)C4)cc3)c21 | solubility kinetic [5]: 290 µM (≈ 131 µg/mL)
123 | 27 | 13 |  | CCNC(=O)C(C)(O)c1ccc(Nc2nc(-c3c(F)cccc3F)nc3c2C(=O)NC3)cc1 (stereo in doubt; 13b) [listing 2 of 2 here] | 
370 | 400 | 32 | 0.68 | O=C1NCc2nc(-c3c(F)cccc3F)cc(Nc3ccc(N4CCC(F)(F)CC4)cn3)c21 | solubility kinetic [5]: 2.4 µM (≈ 1.1 µg/mL)
120 | 160 | 25 | 1.5 | O=C1NCc2nc(-c3c(F)cccc3F)cc(Nc3ccc(N4CCC(O)CC4)cn3)c21 | solubility kinetic [5]: 65 µM (≈ 28.4 µg/mL)

SMILES | Ratio Ki (Homo sapiens [1]) | Ratio Ki (Homo sapiens [2]) | Ratio Ki (Homo sapiens [3]) | efflux ratio [4] | further results
CN1CCN(C(=O)Cc2ccc(Nc3nc(-c4c(F)cccc4F)nc4c3C(=O)NC4)cc2)CC1 | 52 | 89 | 10 |  | 
O=C1NCc2nc(-c3c(F)cccc3F)nc(Nc3ccc(CC(=O)N4CCN(CC(F)F)CC4)cc3)c21 | 24 | 31 | 2.3 |  | 
